Test results from patent US12686704B2, “Procoagulant peptides and use thereof” (RAMBAM MED-TECH LTD., priority 2021, dated 2026).

Experiments:
ICR mice = assay: Immunostaining of wound skin sections of ICR mice; assay type: in vivo, mouse; settings: subcutaneous opposite to the wound every other day for a week; for expression of heparanase in micro-vessels: FIG. 10A; for expression of TF in micro-vessels: FIG. 10B; for expression of TFPI-1 in micro-vessels: FIG. 10C; for expression of TFPI-2 in micro-vessels: FIG. 10D
Experimental: FIGS. 10A-10D include micrographs of immunohistochemistry assays showing that heparanase procoagulant peptides increase the level of heparanase, TF, TFPI and TFPI-2. Full thickness incision was made in the back skin of ICR mice. Each group included 5 mice. From the day of surgery either peptide 16 or 16AC was injected subcutaneous opposite to the wound, every other day for a week. At the end of the experiment the mice were sacrificed and the wound skin section was analyzed by immunostaining. […] Images were visualized through ×50 magnitude, with 0.82 MDC objective lens, captured with a Nikon E995 digital camera (Nikon, Tokyo, Japan), and processed with Adobe Photoshop software (Adobe Systems, San Jose, CA, USA).
Briefly, full thickness incision was made in the back skin of ICR mice. Each group included 5 mice. From the day of surgery either peptide 16 or 16AC was injected subcutaneous opposite to the wound, every other day for a week. At the end of the experiment the mice were sacrificed and the wound skin section was analyzed by immunostaining.

HUVEC cells = assay: HUVEC migration, scratch (artificial gap) assay; assay type: cell-based, human; settings: 10 μg/ml; 4 hours; compared to the control and the non-modified peptide 16
Experimental: FIG. 11 includes micrographs showing that procoagulant peptides increase endothelial cells migration. HUVEC cells were seeded in 35 mm dishes. At confluence of 90%, artificial gap was created using 1,000-μl standard pipette tip. Plate was washed twice with PBS to remove cell debris and incubated with either peptide 16 or 16AC (10 μg/ml). Representative photos of the scratched area after 4 hours are presented. Images were visualized through ×50 magnitude, with 0.82 MDC objective lens, captured with a Nikon E995 digital camera (Nikon, Tokyo, Japan), and processed with Adobe Photoshop software (Adobe Systems, San Jose, CA, USA).
Briefly, HUVEC cells were seeded in 35 mm dishes. At confluence of 90%, artificial gap was created using 1,000 μl standard pipette tip. Plate was washed twice with PBS to remove cell debris and incubated with either peptide 16 or 16AC (10 μg/ml).

[1] = test system: HEK-293 cells with full length TF (TF) or truncated TF; assay: p-p38 signaling in TF-transfected HEK-293 cells (western blot); assay type: cell-based; settings: 2 hours; cells with truncated TF devoid of the intracellular part
Experimental: FIG. 12 includes a vertical bar graph and a micrograph of a western blot analysis. Procoagulant peptide 16AC was added for 2 hours to transfected HEK-293 cells with full length TF (TF) or truncated TF devoid of the intracellular part (ΔTF). […] Control—vector only (Vo); transfection with the empty plasmid, with no additional DNA.
Additionally, the inventor explored binding interaction between the procoagulant peptide of the invention and TF. Briefly, the procoagulant peptide 16AC was added for 2 hours to transfected HEK-293 cells with full length TF (TF) or truncated TF devoid of the intracellular part (ATF).

## GSKRRKLRVYLHCT [Peptide 16, peptide comprising the procoagulant domain of heparanase, non-modified]
ICR mice
  expression of heparanase in micro-vessels: significant increase in the expression
  expression of TF in micro-vessels: significant increase in the expression
  expression of TFPI-1 in micro-vessels: significant increase in the expression
  expression of TFPI-2 in micro-vessels: significant increase in the expression

## acetyl-GSKRRKLRVYLHCT-amid (Ac-GSKRRKLRVYLHCT-NH2) [Peptide 16AC, peptide 16 comprising a C-terminal amid group and an N-terminal acetyl group]
ICR mice
  expression of heparanase in micro-vessels: significant increase in the expression
  expression of TF in micro-vessels: significant increase in the expression
  expression of TFPI-1 in micro-vessels: significant increase in the expression
  expression of TFPI-2 in micro-vessels: significant increase in the expression
HUVEC cells
  migrating HUVEC cells: substantial increase in migrating HUVEC cells
[1]
  increase in p-p38 intracellular signaling: not observed
